Among the test systems are BT-549 breast; DU-145 prostate; HL-60(TB) leukemia; MDA-N; NCI-H23 lung; SN12C renal; SNB-19 CNS; SR leukemia; T-47D breast.
Holding throughout (test): inhibition of tumour cell growth, NCI panel, 48 h

Molecules are shown by their SMILES.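 Five compound concentrations were applied to cells in 96-well plates for 48 hours; endpoints were derived by simple linear interpolation of the resulting dose-response curve. Definition used: TGI = concentration required for complete inhibition of growth.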

Regarding `COc1ccc(CSc2ccccc2Cn2cccc2)cc1OC`, the TGI in the experiment with BT-549 breast, in the experiment with DU-145 prostate, in the experiment on HL-60(TB) leukemia, in the experiment on MDA-N, in the experiment on NCI-H23 lung and in the experiment with SN12C renal was above 100 µM each time. Further, the TGI in the experiment on SNB-19 CNS, in the experiment with SR leukemia and in the experiment with T-47D breast was above 100 µM throughout.
Turning to `CCNC1=C(NC(=O)CC)C(=O)c2ccccc2C1=O`, the TGI in the experiment with BT-549 breast, in the experiment on DU-145 prostate, in the experiment on HL-60(TB) leukemia, with MDA-N, in the experiment with NCI-H23 lung and in the experiment on SN12C renal was above 100 µM each time. For the same compound, the TGI in the experiment on SNB-19 CNS, in the experiment with SR leukemia and in the experiment on T-47D breast was above 100 µM throughout.
In the case of `C=CCOC(=O)C1C2OC3(C(C(=O)OC)=C2C(=O)OC)c2ccccc2CCC13` (stereo not drawn), the TGI in the experiment with BT-549 breast, with DU-145 prostate, in the experiment with HL-60(TB) leukemia, in the experiment with MDA-N, in the experiment on NCI-H23 lung and in the experiment on SN12C renal was above 10 µM in each case. Also, the TGI in the experiment with SNB-19 CNS, in the experiment on SR leukemia and with T-47D breast was above 10 µM each time.
As to `CN(C)CCCN1c2ccccc2CCc2ccc([N+](=O)[O-])cc21`, the TGI is 73.7 µM in the experiment on BT-549 breast; 38.6 µM in the experiment with DU-145 prostate; 75.6 µM with HL-60(TB) leukemia; 40.9 µM with MDA-N; above 100 µM with NCI-H23 lung; 58 µM in the experiment with SN12C renal. For the same compound, the TGI is above 100 µM with SNB-19 CNS, above 100 µM with SR leukemia and 34.1 µM with T-47D breast.
Turning to `Nc1nc(Cl)c(N)c(NCC2(CO)CC(CCCc3ccccc3)C2)n1` (stereo not drawn), the TGI in the experiment on BT-549 breast is above 81.8 µM; in the experiment with DU-145 prostate, above 100 µM; in the experiment with HL-60(TB) leukemia, 32.2 µM; with MDA-N, above 100 µM; in the experiment with NCI-H23 lung, above 84.4 µM; in the experiment on SN12C renal it was above 100 µM. The TGI with SNB-19 CNS, in the experiment with SR leukemia and with T-47D breast was above 100 µM in each case.
As for `CCN(c1cccc(NC(=S)Nc2ccccc2N(CC)c2cc(-c3ccccc3)no2)c1)c1cc(-c2ccccc2)no1`, the TGI with BT-549 breast, in the experiment with DU-145 prostate, in the experiment with HL-60(TB) leukemia, in the experiment on MDA-N, with NCI-H23 lung and in the experiment with SN12C renal was above 100 µM throughout. The TGI in the experiment with SNB-19 CNS, with SR leukemia and with T-47D breast was above 100 µM each time.
With `COc1nc(N)c(N=CC(OC(C)=O)C(OC(C)=O)C(COC(C)=O)OC(C)=O)c(=O)n1C` (stereo not drawn), the TGI in the experiment on BT-549 breast, with DU-145 prostate, with HL-60(TB) leukemia, in the experiment on MDA-N, in the experiment on NCI-H23 lung and with SN12C renal was above 100 µM each time. The TGI in the experiment on SNB-19 CNS, with SR leukemia and in the experiment with T-47D breast was above 100 µM throughout.
With `Cc1ccc(/C(O)=C/C(=O)C(=O)NN=C(c2ccccc2)c2ccccc2)cc1`, the TGI with BT-549 breast, in the experiment on DU-145 prostate, in the experiment with HL-60(TB) leukemia, in the experiment on MDA-N, in the experiment on NCI-H23 lung and with SNB-19 CNS was above 100 µM throughout. Besides, the TGI in the experiment on SR leukemia and in the experiment on T-47D breast was above 100 µM in each case.
On to `O=C(CC(=O)Nc1ccccc1)N/N=C/c1cc(N=Nc2ccc(Br)cc2)ccc1O`, for which the TGI was above 10 µM in the experiment with BT-549 breast; above 10 µM in the experiment with DU-145 prostate; 6 µM with HL-60(TB) leukemia; above 10 µM with MDA-N; above 10 µM with NCI-H23 lung; above 10 µM in the experiment with SN12C renal. The values for the TGI in the experiment with SR leukemia and in the experiment with T-47D breast were 9.75 µM and above 10 µM, respectively.
In the case of `COC(=O)c1cnn2c1n[n+]([O-])c1ccccc12`, the TGI in the experiment on BT-549 breast, in the experiment with DU-145 prostate, in the experiment with HL-60(TB) leukemia, with MDA-N, in the experiment on NCI-H23 lung and in the experiment on SN12C renal was above 100 µM in each case. In addition, the TGI with SR leukemia and with T-47D breast was above 100 µM in each case.
`O=C(CSC1=NCCN1)Nc1ccccc1`: the TGI is 59.5 µM in the experiment on BT-549 breast; above 100 µM in the experiment with DU-145 prostate; 59 µM in the experiment with MDA-N; above 100 µM in the experiment with NCI-H23 lung; 41.1 µM in the experiment on SN12C renal; above 100 µM in the experiment on SNB-19 CNS. Besides, the values for the TGI in the experiment with SR leukemia and in the experiment on T-47D breast were above 100 µM and 61.2 µM, respectively.
Take `CC(C)(CC(O)C#N)/[N+]([O-])=[N+](\[O-])C(C)(C)CC(O)C#N` (stereo not drawn): the TGI with BT-549 breast is 78.8 µM; in the experiment on DU-145 prostate it was 92.9 µM; with MDA-N it was 59.5 µM; in the experiment on NCI-H23 lung it was 66.8 µM; in the experiment with SN12C renal it was 45.3 µM; in the experiment on SNB-19 CNS, above 100 µM. The TGI in the experiment with SR leukemia was found to be 49.5 µM; with T-47D breast, 82.3 µM.

Source of the values: PubChem BioAssay (NCI).
